Source: article PMC11882969 (Nature Communications, 2025)
Values joined by “and” are separate entries in the source; they are usually repeats but may differ in a detail not shown here. Equal values may be shown once. Read-outs that look alike come from different tables or passages of the source.

Columns and labels:
[1] = target: T1, CB1 (rCB1) (Rattus norvegicus, UniProt P20272); experiment: Radioligand competition binding, [3H]-CP-55,940, rat brain membranes
[2] = target: T1, CB1 (rCB1); experiment: Single-point radioligand displacement screen; assay type: binding
[3] = Dynamic light scattering, colloidal aggregation; assay type: physicochemical; details: Log[compound, replicates, sheet FigS2b
Experimental: Samples were prepared as 8-point half-log dilutions in filtered 50 mM KPi buffer, pH 7.0 with final DMSO concentration at 1% (v/v). Colloidal particle formation was measured using DynaPro Plate Reader II (Wyatt Technologies). All compounds were screened in triplicate.

[4] = target: T2, hCB1 (Homo sapiens, UniProt P21554); experiment: bioSensAll ebBRET signaling profiling, hCB1; assay type: cell-based; design: host or cells: HEK293SL cells, transient PEI transfection; details: for Gi1 hCB1 response: Gi1 biosensor; for Gi1 hCB1 / GoB hCB1: single replicate values, FigS6a; for EC50: read-out: EC50 [95% CI]; for Emax: normalized to CP-55,940
T2 sequence (P21554 whole entry): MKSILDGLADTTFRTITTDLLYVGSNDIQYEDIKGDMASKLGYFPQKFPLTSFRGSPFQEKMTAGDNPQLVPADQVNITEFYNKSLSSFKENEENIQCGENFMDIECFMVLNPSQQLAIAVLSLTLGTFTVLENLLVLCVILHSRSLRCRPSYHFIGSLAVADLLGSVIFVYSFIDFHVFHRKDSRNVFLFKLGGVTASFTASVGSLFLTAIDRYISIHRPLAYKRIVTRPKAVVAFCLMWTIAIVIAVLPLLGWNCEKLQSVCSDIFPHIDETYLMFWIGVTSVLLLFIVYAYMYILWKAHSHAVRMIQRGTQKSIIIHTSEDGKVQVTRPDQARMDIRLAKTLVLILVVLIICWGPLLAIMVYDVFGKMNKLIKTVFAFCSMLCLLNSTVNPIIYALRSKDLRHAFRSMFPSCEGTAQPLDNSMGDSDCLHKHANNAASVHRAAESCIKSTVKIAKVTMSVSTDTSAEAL

[5] = target: T2, hCB1; experiment: Lance Ultra cAMP accumulation assay, CHO cells; assay type: cell-based; design: expressed in transfected cells; details: for cAMP assay signal, concentration-response point: replicates, sheet FigureS2a; for normalised cAMP response, concentration-response (Figure2f), replicate values: log[Compound;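 as to all read-outs here: human CB1R stably expressed in CHO cells, ligands co-incubated with forskolin at room temperature, read-out is lowering of forskolin-stimulated cAMP accumulation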

T1 sequence (P20272 whole entry): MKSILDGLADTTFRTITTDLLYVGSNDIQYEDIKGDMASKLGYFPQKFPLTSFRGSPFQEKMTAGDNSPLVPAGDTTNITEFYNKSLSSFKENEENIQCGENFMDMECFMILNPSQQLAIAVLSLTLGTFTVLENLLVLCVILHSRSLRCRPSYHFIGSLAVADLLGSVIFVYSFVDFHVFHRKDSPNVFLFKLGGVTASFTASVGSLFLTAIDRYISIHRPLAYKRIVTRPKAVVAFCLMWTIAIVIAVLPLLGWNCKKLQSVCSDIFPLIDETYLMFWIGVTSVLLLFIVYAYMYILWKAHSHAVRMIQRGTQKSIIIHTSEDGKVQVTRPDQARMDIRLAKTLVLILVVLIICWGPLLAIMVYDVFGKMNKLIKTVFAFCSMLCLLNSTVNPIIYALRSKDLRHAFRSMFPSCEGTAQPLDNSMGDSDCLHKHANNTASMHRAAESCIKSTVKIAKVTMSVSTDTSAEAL

## COC(=O)C(NC(=O)c1cc(C)n(-c2cccc(F)c2)n1)c1cccs1 (stereo not shown) [‘51486]
[1]
  Ki: 794 nM
[1]; LLE = pIC50 − clogP
  LLE (lipophilic ligand efficiency): 3.1
[1]; from measured Ki
  binding free energy ΔG: 8.4 kcal/mol
[1]; from rCB1 affinity
  LE (ligand efficiency): 0.32
[1]; log[drug] -3.643
  radioligand binding remaining, competition curve (Figure2e), replicate values: 5.353 and 8.4728 and 6.119
[1]; log[drug] -4.35655
  radioligand binding remaining, competition curve (Figure2e), replicate values: 7.365 and 2.197 and 0.3487
[1]; log[drug] -5.07
  radioligand binding remaining, competition curve (Figure2e), replicate values: 21.0991 and 15.6904 and 16.8933
[1]; log[drug] -5.783
  radioligand binding remaining, competition curve (Figure2e), replicate values: 52.9233 and 50.4184 and 37.5523
[1]; log[drug] -6.496
  radioligand binding remaining, competition curve (Figure2e), replicate values: 81.1314 and 84.728 and 72.9079
[1]; log[drug] -7.21
  radioligand binding remaining, competition curve (Figure2e), replicate values: 91.0402 and 102.441 and 95.6067
[1]; log[drug] -7.923
  radioligand binding remaining, competition curve (Figure2e), replicate values: 92.6538 and 100.244 and 104.603
[1]; log[drug] -8.636
  radioligand binding remaining, competition curve (Figure2e), replicate values: 97.1716 and 91.2657
[1]; rCB1
  pKi [95% CI]: 6.14 [6.01 –6.26]
[2]; 10 µM, 1 µM or 300 nM by cell colour (not visible)
  % 1H-CP-55,940 displacement (mean) from single point screen: 90.60%
[2]; Figure 1c source data, replicate 1
  rep1_displacement: 90.6
[3]; uM] 0
  DLS scattering intensity: 759657 and 686584 and 965322
[3]; uM] 0.5
  DLS scattering intensity: 1020197 and 797976 and 985220
[3]; uM] 1
  DLS scattering intensity: 599581 and 807564 and 813072
[3]; uM] 1.49996
  DLS scattering intensity: 1081636 and 666504 and 646696
[3]; uM] 2
  DLS scattering intensity: 2657372 and 4460546 and 3577303
[3]; uM] -0.500011
  DLS scattering intensity: 732851 and 712729 and 950123
[3]; uM] -1
  DLS scattering intensity: 747604 and 1271629 and 624256
[3]; uM] -1.5
  DLS scattering intensity: 774618 and 1013605 and 787428
[4]; Log [Compound] (M) -4.22186
  Gi1 hCB1 response: 123.512
  Gi1 hCB1: 75.4915
  GoB hCB1: 69.3873
[4]; Log [Compound] (M) -4.63927
  Gi1 hCB1 response: 98.3102
  Gi1 hCB1: 68.0453
  GoB hCB1: 69.0456
[4]; Log [Compound] (M) -5.05788
  Gi1 hCB1 response: 74.9216
  Gi1 hCB1: 65.332
  GoB hCB1: 68.5421
[4]; Log [Compound] (M) -5.47381
  Gi1 hCB1 response: 77.764
  Gi1 hCB1: 58.8724
  GoB hCB1: 63.2909
[4]; Log [Compound] (M) -5.89285
  Gi1 hCB1 response: 72.6387
  Gi1 hCB1: 46.1383
  GoB hCB1: 45.7032
[4]; Log [Compound] (M) -6.31878
  Gi1 hCB1 response: 38.0146
  Gi1 hCB1: 23.9076
  GoB hCB1: 23.3139
[4]; Log [Compound] (M) -6.72585
  Gi1 hCB1 response: 33.2921
  Gi1 hCB1: 13.671
  GoB hCB1: 15.8509
[4]; Log [Compound] (M) -7.14267
  Gi1 hCB1 response: -1.511
  Gi1 hCB1: 3.866
  GoB hCB1: 8.064
[4]; Log [Compound] (M) -7.55284
  Gi1 hCB1 response: -15.3428
  Gi1 hCB1: 0.7982
  GoB hCB1: 4.971
[4]; Log [Compound] (M) -8
  Gi1 hCB1 response: 9.7692
  Gi1 hCB1: -0.466
  GoB hCB1: 0.09744
[4]; Log [Compound] (M) -8.22186
  Gi1 hCB1 response: 0.839
  Gi1 hCB1: 0.05819
  GoB hCB1: -3.517
[4]; Log [Compound] (M) -8.39794
  Gi1 hCB1 response: -12.3884
  Gi1 hCB1: 0.459
  GoB hCB1: -0.9816
[4]; Log [Compound] (M) -8.68787
  Gi1 hCB1 response: 2.204
  Gi1 hCB1: -0.3118
  GoB hCB1: -2.33
[4]; Log [Compound] (M) -9.15521
  Gi1 hCB1 response: -11.247
  Gi1 hCB1: 0.7365
  GoB hCB1: -2.906
[4]; Log [Compound] (M) -9.61989
  Gi1 hCB1 response: -13.1718
  Gi1 hCB1: 0.5515
  GoB hCB1: -0.9276
[4]; Log [Compound] (M) -10.0969
  Gi1 hCB1 response: -6.323
  Gi1 hCB1: 1.1836
  GoB hCB1: -3.176
[4]; Log [Compound] (M) -10.5529
  Gi1 hCB1 response: -17.8943
  Gi1 hCB1: 0.2124
  GoB hCB1: -1.989
[4]; Log [Compound] (M) -11.0177
  Gi1 hCB1 response: -4.935
  Gi1 hCB1: 0.3974
  GoB hCB1: -1.521
[4]; Log [Compound] (M) -11.4949
  Gi1 hCB1 response: -5.54
  Gi1 hCB1: 0.1507
  GoB hCB1: -1.827
[4]; Log [Compound] (M) -11.9208
  Gi1 hCB1 response: -6.838
  Gi1 hCB1: -0.03431
  GoB hCB1: 0.2953
[4]; Log [Compound] (M) -12.3979
  Gi1 hCB1 response: -1.466
  Gi1 hCB1: -0.06514
  GoB hCB1: -1.179
[4]; Log [Compound] (M) -12.8861
  Gi1 hCB1 response: -7.42
  Gi1 hCB1: -0.466
  GoB hCB1: -2.798
[4]; Log [Compound] (M) -13, individual replicate values
  Gi1 hCB1 response: -9.747 and -10.7098
[4]; Log [Compound] (M) -13
  Gi1 hCB1: -0.8976 and -0.03431
  GoB hCB1: -1.143 and -0.8017
[4]; hCB1 Gi1
  pEC50 [95% CI]: 6.1 [6.0 – 6.1]
  EC50: 849 nM
[4]; hCB1 GoB
  pEC50 [95% CI]: 6.2 [6.1 – 6.2]
  EC50: 711 nM
[4]; hCB1 Gz
  pEC50 [95% CI]: 6.0 [5.5 – 6.4]
  EC50: 1120 nM
[4]; read-out: Emax [95% CI], hCB1 Gi1
  Emax: 73%
[4]; read-out: Emax [95% CI], hCB1 GoB
  Emax: 74%
[4]; read-out: Emax [95% CI], hCB1 Gz
  Emax: 130%
[5]; compound 0.01 nM
  cAMP assay signal, concentration-response point: 0.003086 and 0.002857 and 0.002584
[5]; compound 0.1 nM
  cAMP assay signal, concentration-response point: 0.003236 and 0.002959 and 0.003953*
[5]; compound 1 nM
  cAMP assay signal, concentration-response point: 0.003012 and 0.002545 and 0.00241
[5]; compound 10 nM
  cAMP assay signal, concentration-response point: 0.003401 and 0.002801 and 0.00274
[5]; compound 100 nM
  cAMP assay signal, concentration-response point: 0.002632 and 0.003106 and 0.002457
[5]; compound 1000 nM
  cAMP assay signal, concentration-response point: 0.002532 and 0.002088 and 0.00216
[5]; compound 10000 nM
  cAMP assay signal, concentration-response point: 0.001565 and 0.001538 and 0.001686
[5]; compound 100000 nM
  cAMP assay signal, concentration-response point: 0.001247 and 0.001041 and 0.0009747
[5]; hCB1-expressing cells, in words
  agonism, inhibition of forskolin-stimulated cAMP: modest agonism
[5]; M] -5
  normalised cAMP response, concentration-response (Figure2f), replicate values: 61.1478 and 37.2808 and 60.3783 and 74.6524
[5]; M] -6
  normalised cAMP response, concentration-response (Figure2f), replicate values: 88.8547 and 72.8445 and 99.0012 and 98.4034
[5]; M] -7
  normalised cAMP response, concentration-response (Figure2f), replicate values: 93.8057 and 91.7167 and 95.78 and 96.566
[5]; M] -8
  normalised cAMP response, concentration-response (Figure2f), replicate values: 85.2922 and 84.747 and 110.313 and 100.436
[5]; M] -9
  normalised cAMP response, concentration-response (Figure2f), replicate values: 104.899 and 94.89 and 101.982 and 109.312
[5]; M] -10
  normalised cAMP response, concentration-response (Figure2f), replicate values: 98.9432 and 97.9859 and 99.2252 and 102.121
[5]; M] -11
  normalised cAMP response, concentration-response (Figure2f), replicate values: 94.0694 and 79.1039 and 104.119 and 97.9362
[5]; M] -12
  normalised cAMP response, concentration-response (Figure2f), replicate values: 99.9579 and 92.8829 and 101.899 and 97.9047
